Results as given in patent US20230257354A1, “NOVEL HETEROCYCLIC COMPOUNDS” (Hoffmann-La Roche Inc., priority 2020, published 2023).

Each compound was assayed on Acinetobacter baumannii ATCC17978 (assay: Antimicrobial susceptibility testing, 90% growth inhibitory concentration (IC90) determination, ATCC17978). Conditions: Iso-Sensitest broth, OD 600 nm over 16 h, 35±2° C., read-out: ATCC 17978 IC90.
Format: cell-based
Procedure, shortened: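 Serial twofold dilutions (e.g. 50 to 0.097 μM final) in Iso-Sensitest broth, inoculum ~5×10^(5) CFU/ml, incubated 35±2 °C for 16 h. OD600 read every 20 min; growth inhibition calculated during logarithmic growth to derive the concentration inhibiting 90% of growth, in μM.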

SMILES	IC90 [nM]
COc1ccc(-c2cnc(C(=O)Nc3ccc(C(=O)NCCNC(=O)[C@H]4C[C@@](C)(O)CN4)c(C)c3)n2C)c(F)c1F [Example B26, 5-(2,3-difluoro-4-methoxy-phenyl)-N-[4-[2-[[(2R,4R)-4-hydroxy-4-methyl-pyrrolidine-2-carbonyl]amino]ethylcarbamoyl]-3-methyl-phenyl]-1-methyl-imidazole-2-carboxamide;formic acid]	1200
CC[C@]1(O)CN[C@@H](C(=O)NCCNC(=O)c2ccc(NC(=O)c3ncc(-c4ccc(OC)c(F)c4F)n3C)cc2C)C1 [Example B27, 5-(2,3-difluoro-4-methoxy-phenyl)-N-[4-[2-[[(2R,4R)-4-ethyl-4-hydroxy-pyrrolidine-2-carbonyl]amino]ethylcarbamoyl]-3-methyl-phenyl]-1-methyl-imidazole-2-carboxamide;formic acid]	1100
COc1ccc(-c2cnc(C(=O)Nc3ccc(C(=O)NCCNC(=O)N[C@@H]4CNC[C@H]4O)c(C)c3)n2C)c(F)c1F [Example B28, 5-(2,3-difluoro-4-methoxy-phenyl)-N-[4-[2-[[(3R,4R)-4-hydroxypyrrolidin-3-yl]carbamoylamino]ethylcarbamoyl]-3-methyl-phenyl]-1-methyl-imidazole-2-carboxamide;formic acid]	510
COc1ccc(-c2cnc(C(=O)Nc3ccc(C(=O)NCCNC(=O)N[C@H]4CNC[C@@H]4O)c(C)c3)n2C)c(F)c1F [Example B29, 5-(2,3-difluoro-4-methoxy-phenyl)-N-[4-[2-[[(3S,4S)-4-hydroxypyrrolidin-3-yl]carbamoylamino]ethylcarbamoyl]-3-methyl-phenyl]-1-methyl-imidazole-2-carboxamide;formic acid]	610
Cc1cc(NC(=O)c2ncc(-c3ccc(OCC#N)c(F)c3F)n2C)ccc1C(=O)NCCNC(=O)N[C@@H]1CNC[C@H]1O [Example B30, 5-[4-(cyanomethoxy)-2,3-difluoro-phenyl]-N-[4-[2-[[(3R,4R)-4-hydroxypyrrolidin-3-yl]carbamoylamino]ethylcarbamoyl]-3-methyl-phenyl]-1-methyl-imidazole-2-carboxamide;formic acid]	650
Cc1cc(NC(=O)c2ncc(-c3ccc(OCC#N)c(F)c3F)n2C)ccc1C(=O)NCCNC(=O)N[C@H]1CNC[C@@H]1O [Example B31, 5-[4-(cyanomethoxy)-2,3-difluoro-phenyl]-N-[4-[2-[[(3S,4S)-4-hydroxypyrrolidin-3-yl]carbamoylamino]ethylcarbamoyl]-3-methyl-phenyl]-1-methyl-imidazole-2-carboxamide;formic acid]	740
Cn1c(-c2ccc(OCC#N)c(F)c2F)cnc1C(=O)Nc1ccc(C(=O)NCCNC(=O)[C@@H]2CCNC[C@@H]2O)c(Cl)c1 [Example B32, (3R,4R)-N-[2-[[2-chloro-4-[[5-[4-(cyanomethoxy)-2,3-difluoro-phenyl]-1-methyl-imidazole-2-carbonyl]amino]benzoyl]amino]ethyl]-3-hydroxy-piperidine-4-carboxamide;formic acid]	1200
Cn1c(-c2ccc(OCC#N)c(F)c2F)cnc1C(=O)Nc1ccc(C(=O)NCCNC(=O)[C@H]2CCNC[C@H]2O)c(Cl)c1 [Example B33, (3S,4S)-N-[2-[[2-chloro-4-[[5-[4-(cyanomethoxy)-2,3-difluoro-phenyl]-1-methyl-imidazole-2-carbonyl]amino]benzoyl]amino]ethyl]-3-hydroxy-piperidine-4-carboxamide;formic acid]	1100
Cn1c(-c2ccc(OCC#N)c(F)c2F)cnc1C(=O)Nc1ccc(C(=O)NCCNC(=O)[C@@H]2CCNC[C@H]2O)c(Cl)c1 [Example B34, (3S,4R)-N-[2-[[2-chloro-4-[[5-[4-(cyanomethoxy)-2,3-difluoro-phenyl]-1-methyl-imidazole-2-carbonyl]amino]benzoyl]amino]ethyl]-3-hydroxy-piperidine-4-carboxamide;formic acid]	1700
Cn1c(-c2ccc(OCC#N)c(F)c2F)cnc1C(=O)Nc1ccc(C(=O)NCCNC(=O)[C@H]2CCNC[C@@H]2O)c(Cl)c1 [Example B35, (3R,4S)-N-[2-[[2-chloro-4-[[5-[4-(cyanomethoxy)-2,3-difluoro-phenyl]-1-methyl-imidazole-2-carbonyl]amino]benzoyl]amino]ethyl]-3-hydroxy-piperidine-4-carboxamide;formic acid]	1300
Cn1c(-c2ccc(OCC#N)c(F)c2F)cnc1C(=O)Nc1ccc(C(=O)NCCNC(=O)[C@H]2C[C@@](C)(O)CN2)c(Cl)c1 [Example B36, N-[3-chloro-4-[2-[[(2R,4R)-4-hydroxy-4-methyl-pyrrolidine-2-carbonyl]amino]ethylcarbamoyl]phenyl]-5-[4-(cyanomethoxy)-2,3-difluoro-phenyl]-1-methyl-imidazole-2-carboxamide;formic acid]	1100
CC[C@]1(O)CN[C@@H](C(=O)NCCNC(=O)c2ccc(NC(=O)c3ncc(-c4ccc(OCC#N)c(F)c4F)n3C)cc2Cl)C1 [Example B37, N-[3-chloro-4-[2-[[(2R,4R)-4-ethyl-4-hydroxy-pyrrolidine-2-carbonyl]amino]ethylcarbamoyl]phenyl]-5-[4-(cyanomethoxy)-2,3-difluoro-phenyl]-1-methyl-imidazole-2-carboxamide;formic acid]	850
COc1ccc(-c2cnc(C(=O)Nc3ccc(C(=O)N[C@H]4C[C@@H](NC(=O)C5CCNCC5)C4)c(Cl)c3)n2C)c(F)c1F [Example B39, N-[3-[[2-chloro-4-[[5-(2,3-difluoro-4-methoxy-phenyl)-1-methyl-imidazole-2-carbonyl]amino]benzoyl]amino]cyclobutyl]piperidine-4-carboxamide;formic acid]	57
COc1ccc(-c2cnc(C(=O)Nc3ccc(C(=O)N[C@H]4C[C@@H](NC(=O)C5(O)CCNCC5)C4)c(Cl)c3)n2C)c(F)c1F [Example B40, N-[3-[[2-chloro-4-[[5-(2,3-difluoro-4-methoxy-phenyl)-1-methyl-imidazole-2-carbonyl]amino]benzoyl]amino]cyclobutyl]-4-hydroxy-piperidine-4-carboxamide;formic acid]	120
COc1ccc(-c2cnc(C(=O)Nc3ccc(C(=O)N[C@H]4C[C@@H](NC(=O)[C@@H]5CCNC[C@@H]5O)C4)c(Cl)c3)n2C)c(F)c1F [Example B41, (3R,4R)-N-[3-[[2-chloro-4-[[5-(2,3-difluoro-4-methoxy-phenyl)-1-methyl-imidazole-2-carbonyl]amino]benzoyl]amino]cyclobutyl]-3-hydroxy-piperidine-4-carboxamide;formic acid]	130
COc1ccc(-c2cnc(C(=O)Nc3ccc(C(=O)N[C@H]4C[C@@H](NC(=O)[C@H]5CCNC[C@H]5O)C4)c(Cl)c3)n2C)c(F)c1F [Example B42, (3S,4S)-N-[3-[[2-chloro-4-[[5-(2,3-difluoro-4-methoxy-phenyl)-1-methyl-imidazole-2-carbonyl]amino]benzoyl]amino]cyclobutyl]-3-hydroxy-piperidine-4-carboxamide;formic acid]	73
Cn1c(-c2ccc(OC(F)F)c(F)c2F)cnc1C(=O)Nc1ccc(C(=O)NCCC2CN(CC3CNC3)C2)c(Cl)c1 [Example C1, N-[4-[2-[1-(Azetidin-3-ylmethyl)azetidin-3-yl]ethylcarbamoyl]-3-chloro-phenyl]-5-[4-(difluoromethoxy)-2,3-difluoro-phenyl]-1-methyl-imidazole-2-carboxamide;2,2,2-trifluoroacetic acid]	830
CCc1cc(NC(=O)c2ncc(-c3ccc(OC(F)F)c(F)c3F)n2C)ccc1C(=O)NCCCNC(=O)C1CCN(CC2CCNC2)CC1 (stereo not drawn) [Example C2, N-[3-[[4-[[5-[4-(difluoromethoxy)-2,3-difluoro-phenyl]-1-methyl-imidazole-2-carbonyl]amino]-2-ethyl-benzoyl]amino]propyl]-1-(pyrrolidin-3-ylmethyl)piperidine-4-carboxamide;formic acid]	370
CCc1cc(NC(=O)c2ncc(-c3ccc(OC(F)F)c(F)c3F)n2C)ccc1C(=O)NCCCNC(=O)C1CCN(CC2CNC2)CC1 [Example C3, 1-(azetidin-3-ylmethyl)-N-[3-[[4-[[5-[4-(difluoromethoxy)-2,3-difluoro-phenyl]-1-methyl-imidazole-2-carbonyl]amino]-2-ethyl-benzoyl]amino]propyl]piperidine-4-carboxamide;formic acid]	450
COc1ccc(-c2cnc(C(=O)Nc3ccc(C(=O)NCC4CCN(CC5CNC5)CC4)c(Cl)c3)n2C)c(F)c1F [Example C4, N-[4-[[1-(azetidin-3-ylmethyl)-4-piperidyl]methylcarbamoyl]-3-chloro-phenyl]-5-(2,3-difluoro-4-methoxy-phenyl)-1-methyl-imidazole-2-carboxamide;2,2,2-trifluoroacetic acid]	750
CNC(=O)c1ccc(NC(=O)c2ncc(-c3ccc(OC)cc3)n2C)cc1C [Example D1, 5-(4-Methoxyphenyl)-1-methyl-N-[3-methyl-4-(methylcarbamoyl)phenyl]imidazole-2-carboxamide]	3200
